One assay concerns the target T1, NaV1.7 (Homo sapiens, UniProt Q15858).
T1 construct: expressed in transfected cells
Kind of assay: FDSS membrane potential in-vitro assay. The format is cell-based. The note with it: HEK293 cells expressing NaV1.7 α, β1, β2, veratridine and scorpion venom stimulation.

Assay [1] has as its system Acetic Acid Writhing Model. Kind of assay: Acetic Acid Writhing Model (visceral pain). The format is in vivo. The settings on record: relative to vehicle control; 10 to 30 mg/kg intraperitoneal. The protocol: Writhing Model The Acetic Acid Writhing Model is associated with visceral pain (abdominal pain, such as stomach pain, and pain caused by, for example, bile duct congestion and kidney stones). A writhing test assesses acute peritoneovisceral pain. After acclimation of 2-3 days, a test compound, positive control or vehicle control is administered by intraperitoneal injection (i.p.) or by oral gavage 15-30 minutes prior to administration of acetic acid. The time of administration of test compound is recorded. For mice: 0.6% Acetic acid solution in saline is injected i.p in a volume of 10 ml/kg. For rats: 4% acetic acid in saline is injected i.p in a volume of 2 ml/kg at T=0 minutes. Each animal is placed in a clear plastic cage. At T=5 minutes, the number of writhing movements is counted over a 45 minute period. Alternatively, the writhing movements are counted over a 5-minute period and repeated every 5 minutes, starting at T=5 minutes over a 45-minute period.

T1 sequence (Q15858 whole entry): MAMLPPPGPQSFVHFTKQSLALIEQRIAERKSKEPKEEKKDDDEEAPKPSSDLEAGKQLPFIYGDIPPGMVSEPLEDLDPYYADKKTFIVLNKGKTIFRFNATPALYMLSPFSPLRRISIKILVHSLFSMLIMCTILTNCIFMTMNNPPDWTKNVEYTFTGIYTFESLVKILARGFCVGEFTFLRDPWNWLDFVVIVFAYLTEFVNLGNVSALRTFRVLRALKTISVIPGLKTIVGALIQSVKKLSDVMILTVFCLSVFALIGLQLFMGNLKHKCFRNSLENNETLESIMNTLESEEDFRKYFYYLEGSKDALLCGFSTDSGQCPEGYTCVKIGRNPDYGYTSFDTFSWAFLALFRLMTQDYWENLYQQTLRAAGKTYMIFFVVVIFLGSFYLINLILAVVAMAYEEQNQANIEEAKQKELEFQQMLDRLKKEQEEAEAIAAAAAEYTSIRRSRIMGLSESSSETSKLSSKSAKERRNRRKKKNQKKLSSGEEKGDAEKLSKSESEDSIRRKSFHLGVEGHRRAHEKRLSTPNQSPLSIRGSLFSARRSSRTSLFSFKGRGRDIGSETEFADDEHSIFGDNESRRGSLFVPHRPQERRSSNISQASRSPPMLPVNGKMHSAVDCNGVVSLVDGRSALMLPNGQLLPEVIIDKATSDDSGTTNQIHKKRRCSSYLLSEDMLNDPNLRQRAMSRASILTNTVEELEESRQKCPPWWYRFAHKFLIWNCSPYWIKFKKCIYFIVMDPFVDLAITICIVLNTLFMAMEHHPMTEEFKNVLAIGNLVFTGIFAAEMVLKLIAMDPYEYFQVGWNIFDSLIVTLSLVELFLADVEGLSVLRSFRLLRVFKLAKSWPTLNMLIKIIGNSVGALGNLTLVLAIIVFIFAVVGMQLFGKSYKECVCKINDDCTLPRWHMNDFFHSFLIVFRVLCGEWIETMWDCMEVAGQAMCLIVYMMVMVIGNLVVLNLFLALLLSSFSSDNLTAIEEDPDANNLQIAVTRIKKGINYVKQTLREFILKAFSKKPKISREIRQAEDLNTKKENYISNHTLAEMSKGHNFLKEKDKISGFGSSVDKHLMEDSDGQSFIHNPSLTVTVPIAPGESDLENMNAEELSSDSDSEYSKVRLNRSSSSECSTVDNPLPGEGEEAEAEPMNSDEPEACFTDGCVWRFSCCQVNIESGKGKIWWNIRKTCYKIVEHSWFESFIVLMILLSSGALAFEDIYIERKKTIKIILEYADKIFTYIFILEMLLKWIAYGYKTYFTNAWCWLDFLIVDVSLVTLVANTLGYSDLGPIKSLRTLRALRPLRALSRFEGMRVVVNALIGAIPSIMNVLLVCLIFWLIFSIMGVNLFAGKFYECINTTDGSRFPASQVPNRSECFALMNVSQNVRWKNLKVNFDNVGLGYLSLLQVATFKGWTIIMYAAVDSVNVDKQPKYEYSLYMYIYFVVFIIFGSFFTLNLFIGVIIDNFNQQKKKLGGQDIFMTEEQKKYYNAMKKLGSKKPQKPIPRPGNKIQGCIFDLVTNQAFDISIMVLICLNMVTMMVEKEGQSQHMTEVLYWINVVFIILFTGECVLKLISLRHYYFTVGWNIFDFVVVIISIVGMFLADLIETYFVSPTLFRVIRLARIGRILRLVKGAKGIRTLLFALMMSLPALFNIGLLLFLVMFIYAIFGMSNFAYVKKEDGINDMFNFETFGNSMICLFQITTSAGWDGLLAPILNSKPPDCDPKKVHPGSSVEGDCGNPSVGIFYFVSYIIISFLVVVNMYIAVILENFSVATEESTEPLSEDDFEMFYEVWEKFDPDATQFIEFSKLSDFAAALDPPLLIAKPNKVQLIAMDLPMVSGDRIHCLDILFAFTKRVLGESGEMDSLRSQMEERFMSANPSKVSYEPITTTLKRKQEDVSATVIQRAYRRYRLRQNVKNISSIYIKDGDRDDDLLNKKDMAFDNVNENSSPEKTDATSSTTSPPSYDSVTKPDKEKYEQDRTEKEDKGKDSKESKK
T1 sequence (Q07699 19-218 partner): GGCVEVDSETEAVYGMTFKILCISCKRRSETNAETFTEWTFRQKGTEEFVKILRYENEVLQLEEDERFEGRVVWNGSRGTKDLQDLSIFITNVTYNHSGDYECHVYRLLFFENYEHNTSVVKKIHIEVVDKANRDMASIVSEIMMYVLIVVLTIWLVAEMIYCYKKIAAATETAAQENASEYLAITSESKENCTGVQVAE
T1 sequence (O60939 30-215 partner): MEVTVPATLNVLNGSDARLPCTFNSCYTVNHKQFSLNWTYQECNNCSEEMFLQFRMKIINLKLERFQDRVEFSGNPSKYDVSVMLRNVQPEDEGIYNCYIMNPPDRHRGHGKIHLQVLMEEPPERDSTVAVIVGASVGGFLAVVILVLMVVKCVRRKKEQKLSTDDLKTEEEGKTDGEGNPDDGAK

With `O=C(O)C1CCCN(CCCc2cc(Cl)ccc2Oc2cc(F)c(S(=O)(=O)Nc3cscn3)cc2Cl)C1` (stereo not shown) [Example 19, 1-(3-(5-chloro-2-(2-chloro-5-fluoro-4-(N-(thiazol-4-yl)sulfamoyl)phenoxy)phenyl)propyl)piperidine-3-carboxylic acid], the IC50 on NaV1.7 was > 1000 nM.

Turning to `N#Cc1cc(S(=O)(=O)Nc2cscn2)ccc1Oc1ccc(Cl)cc1CCCNCCC(=O)O` [Example 23, 3-((3-(5-chloro-2-(2-cyano-4-(N-(thiazol-4-yl)sulfamoyl)phenoxy)phenyl)propyl)amino)propanoic acid], the IC50 at NaV1.7 is > 1000 nM.

For `O=C(O)CCNCCCc1cc(Cl)ccc1Oc1cc(F)c(S(=O)(=O)Nc2cscn2)cc1F` [Example 22, 3-((3-(5-chloro-2-(2,5-difluoro-4-(N-(thiazol-4-yl)sulfamoyl)phenoxy)phenyl)propyl)amino)propanoic acid], the IC50 at NaV1.7 is > 1000 nM.

For the molecule `O=C(O)C1CCN(CCCc2cc(Cl)ccc2Oc2cc(F)c(S(=O)(=O)Nc3cscn3)cc2Cl)CC1` [Example 14, 1-(3-(5-chloro-2-(2-chloro-5-fluoro-4-(N-(thiazol-4-yl)sulfamoyl)phenoxy)phenyl)propyl)piperidine-4-carboxylic acid], the IC50 against NaV1.7 was > 1000 nM.

Regarding `NC(CCNCCCc1cc(Cl)ccc1Oc1cc(F)c(S(=O)(=O)Nc2cscn2)cc1Cl)C(=O)O` (stereo not shown) [Example 17, 2-amino-4-((3-(5-chloro-2-(2-chloro-5-fluoro-4-(N-(thiazol-4-yl)sulfamoyl)phenoxy)phenyl)propyl)amino)butanoic acid], the IC50 on NaV1.7 is > 1000 nM.

Regarding `O=C(O)CNC(=O)c1cc(-c2cc(Cl)ccc2Oc2cc(F)c(S(=O)(=O)Nc3ncns3)cc2Cl)ccn1` [Example 2, 2-(4-(2-(4-(N-(1,2,4-thiadiazol-5-yl)sulfamoyl)-2-chloro-5-fluorophenoxy)-5-chlorophenyl)picolinamido)acetic acid], in assay [1], the “reduction in pain response, writhing” value was 48-58%.

Regarding `O=C(O)CNCCCc1cc(Cl)ccc1Oc1cc(F)c(S(=O)(=O)Nc2cscn2)cc1F` [Example 21, 2-((3-(5-chloro-2-(2,5-difluoro-4-(N-(thiazol-4-yl)sulfamoyl)phenoxy)phenyl)propyl)amino)acetic acid], at NaV1.7, the IC50 was > 1000 nM.
